In US9096544B2, “Therapeutic compounds” (Wayne State University, priority 2009, dated 2015):
Converted amounts (≈) assume the structure as drawn. Like-named read-outs stand apart in the source and are kept apart here.

Tests used:
TF(v-SRC) cells = assay: Annexin V-FITC binding by flow cytometry, TF(v-SRC) cells; format: cell-based; details: 1 μM, varying times
Method: FIG. 3 illustrates the induction of apoptosis and cell death as assessed using Annexin V-FITC binding together with propidium iodide (PI) staining. FFMA-AML and TF(vSRC) cells were exposed to 1 μM 3-Cl-AHPC or compound 16. A) Apoptosis in FFMA-AML and TF(vSRC) cells following 24 and 48 h ARR exposure, respectively. The plots show the distribution of classes of fluorescence intensity versus cell number. The bottom left quadrant represents live cells (both annexin V-FITC and PI negative); the bottom right quadrant represents early apoptotic cells (annexin V-FITC positive but PI negative); and the top right quadrant represents late apoptotic cells (both annexin V-FITC and PI positive). B) Percentage of early apopotic Annexin V-positive cells at the indicated times. […] (p values of <0.05, <0.01 and <0.001 respectively, as determined by the t test).
Apoptosis of cells was determined by (1) acridine orange and ethidium bromide-staining to assess cells with nuclear fragmentation and chromatin condensation as previously described (Farhana L. et al., Cancer Res. 2006; 65:4909-4917) and (2) flow cytometry assessing Annexin V-FITC binding together with propidium iodide staining (Annexin V-FITC apoptosis Detection kit 1, BD Biosciences, San Diego, Calif.). Data acquisition was done on a FACS Calibur flow cytometer (BD) and analyzed with CellQuest software. […]

caspase-3 = assay: Caspase-3 activation and cleavage in AML cells; format: cell-based; details: FFMA-AML and TF(vSRC) cells; 1 μM; lysates
Method: FIG. 4 illustrates 3-Cl-AHPC and compound 16-mediated caspase-3 activation and cleavage of caspase-3. A) Activation of caspase-3 in FFMA-AML and TF(vSRC) cells following exposure to 1 μM 3-Cl-AHPC and compound 16 for varying times. B) Generation of the caspase-3 (17 kDa) fragment and caspase-3 protein levels (α-tubulin used as loading control). Columns represent mean of three independent experiments. […] (p value is <0.01 as determined by t test).
To further document 3-Cl-AHPC and compound 16-mediated apoptosis in the FFMA-AML and TF(v-SRC) cells, cells were exposed to 1 μM 3-Cl-AHPC or compound 16 for varying times, and then annexin V-FITC binding assessed using flow cytometry.

[1] = Test H: aqueous solubility by UV absorbance; format: physicochemical; details: for solubility: 22° C.
Method: Standard curves at the UV λmax (330, 350 and 345 nm for 3-Cl-AHPC, 18 and 16, respectively) were generated using 0.245, 0.163, 0.049 and 0.025 mM 3-Cl-AHPC and 0.380, 0.178, 0.053 and 0.027 mM 18 and 16, which were prepared from 1.0% (wt/vol) solutions of compounds in Me2SO. […] Measurements for maximum solubilities in distilled water (pH 5) and phosphate-buffered saline (PBS, pH 7.2) at 22° C. were made by UV absorbance using solutions obtained after saturation at higher temperatures, overnight incubation at 22° C., and centrifugation to remove undissolved material.

MiaPaCa-2 cells = assay: Test I: apoptosis of MiaPaCa-2 pancreatic cancer cells (Annexin V-FITC/PI); format: cell-based; details: 1 μM, 72 h
Method: Pancreatic cancer cell lines (COLO357, PANC-1, Capan-2, AsPc-1 cells and MiaPaCa-2 cells obtained from American Type Culture Collection; ATCC, Rockville, Md.) were treated with 1 μM 3-Cl-AHPC and compound 16 for various times. Apoptosis in cells were analyzed by flow cytometry using Annexin V-FITC binding together with propidium iodide (PI) staining (Annexin V-FITC apoptosis Detection Kit 1, BD Biosciences, San Diego, Calif.). Data acquisition was done on a FACS Calibur flow cytometer (BD) and analyzed with CellQuest software (BD Biosciences). 3-Cl-AHPC and compound 16 mediated inhibition of cell growth were determined by 3-(4,5-dimethylthiazol-2-yl)-2,5-diphenyltetrazolium bromide (MTT) assay. The cells were seeded on 96-well plates at a density of 4×10^4 cells/well in a volume of 200 μl culture medium. 1 μM AHP3 and 3-Cl-AHPC in DMSO (final concentration 0.1%) were added to the cells for various times. […] After discarding the medium, MTT precipitates were solubilized with 200 μl DMSO and the plates read on a BioTeK Synergy HT (BioTeK Instrument Inc., Vermont) at an absorbance 570 nm. […] The spheroids were stained with acridine orange/ethidium bromide staining and immediately visualized and photographed with fluorescence microscope (OLYMPUS CKX41). […] Then spheroids were visualized and photographed with a fluorescence microscope.

[2] = tested on: pancreatic cancer stem cell spheroids; assay: Test J: disaggregation of and apoptosis in pancreatic cancer stem cell spheroids; format: cell-based; details: for effect on formed spheroids: added to pancreatic cancer stem cell spheroids; for exposure resulting in disaggregation of the spheroid and induction of apoptosis: as little as
Method: Apoptosis and Growth Inhibition of Pancreatic Cancer Stem Cells (Obtained from PANC-1, Capan-2 and MiaPaCa-2 Cells) by Compound 16 and 3-Cl-AHPC.
The sorted CD44^+/CD24^+ cells were suspended in serum-free stem cell medium containing DMEM/F12 (1:1) supplemented with B27 (Life Technologies, Gaithersburg, Md.), 20 ng/ml EGF (Biomol International, Plymouth, Pa.)), 20 ng/ml fibroblast growth factor (Biomol International, Plymouth, Pa.), and 100 μg/ml gentamycin. Approximately 150-200 cells per well were seeded in an ultra low-attachment 96-well plate (Corning Inc, Lowell, Mass.). 3-Cl-AHPC and compound 16 were added the day after cells were plated or after 7 days of spheroid formation. Spheriods were photographed and measured utilizing a Olympus microscope (OLYMPUS CKX41) and Olympus microscope digital camera with DP2-BSW software (Olympus soft imaging solutions GmbH, Germany).
DMSO (vehicle) and 3-Cl-AHPC treated spheroids were centrifuged at 1000 rpm for 5 minutes, washed in PBS, 22% bovine serum albumin added to the spheroids pellet, 95% ethanol placed on the spheroids pellet and the pellet allowed to harden for 30 minutes. Neutral buffered formalin (10%) was added to fix the cell pellet for at least 2 h and the spheroids were then placed in a labeled plastic tissue embedding cassette containing 10% neutral buffered formalin overnight. The spheroids were processed in a Sakura Tissue-Tek Processor for overnight dehydration in graded ethanol, clearing in xylene and infiltration with paraffin. The spheroids were placed in a 4 μm embedding mold for final paraffin embedding.
The TUNEL assay was performed using the In Situ Cell Death Detection kit, POD (Roche-Applied-Science, Mannheim, Germany) according to the manufacturer's instructions.
The paraffin embedding spheroids were deparaffinized and rehydrated, then tissues sections were incubated with proteinase K solution (10-20 μg/ml) for 30 min. Tissues were then rinsed twice in PBS and reacted with 50 μl of the TUNEL reaction mixture at room temperature for 60 min in a dark, humidified chamber. Sections were again rinsed in PBS and incubated for 30 min with 50 μl of the Converter-POD (RocheApplied-Science) and followed by 3-amino-9-ethylcarbazole (AEC). Sections were then counterstained with hematoxylin. As negative controls, corresponding sections were treated in the same way without terminal, deoxynucleotidyl transferase.

SMILES | annexin V-FITC-positive cells (TF(v-SRC) cells) | caspase-3 activation (17-kDa cleaved caspase-3, caspase-3 activity) (caspase-3) | Solubility (μM) at 22° C. PBS (pH 7.2) ([1]; PBS pH 7.2) | solubility ([1]; thermodynamic from solid, distilled water pH 5, read-out: Solubility (μM) at 22° C. Distilled water (pH 5)) [µM] | induction of apoptosis (MiaPaCa-2 cells) | effect on formed spheroids [2] | exposure resulting in disaggregation of the spheroid and induction of apoptosis [2] [nM] | solubility ([1]; distilled water pH 5, read-out: Solubility (μM) at 22° C. Distilled water (pH 5)) [µM] | solubility ([1]; phosphate-buffered saline, aqueous buffer, thermodynamic from solid, PBS pH 7.2, read-out: Solubility (μM) at 22° C. PBS (pH 7.2)) [µM]
O=C(O)C=Cc1ccc(-c2ccc(O)c(C34CC5CC(CC(C5)C3)C4)c2)c(Cl)c1 [Compound 3-Cl-AHPC, 4-[3-(1-adamantyl)-4-hydroxyphenyl]-3-chlorocinnamic acid, reference compound] | progressive increase in annexin V-FITC-positive cells with time | induced caspase-3 activation | Not detectable | 4.5 (≈ 1.84 µg/mL) | Apoptosis was also noted | resulted in their disaggregation and the induction of apoptosis in the cells comprising the spheroid | 500 | – | –
O=C(O)/C=C/c1cnc(-c2ccc(O)c(C34CC5CC(CC(C5)C3)C4)c2)nc1 [Compound 16, (E)-3-[2-(3-(1-Adamantyl)-4-hydroxyphenyl)-5-pyrimidinyl]-2-propenoic acid] | progressive increase in annexin V-FITC-positive cells with time | induced caspase-3 activation | – | – | Apoptosis was also noted | resulted in their disaggregation and the induction of apoptosis in the cells comprising the spheroid | 500 | 54 (≈ 20.3 µg/mL) | 440 (≈ 166 µg/mL)
